Earlier results in the PKSmart pharmacokinetics tables (Seal et al. 2025).

Columns and labels:
[1] = Lombardo et al. 2013, J Clin Pharmacol 53:178, doi 10.1177/0091270012440282; details: for Vd / clearance: in vivo, iv; for fraction unbound: plasma
[2] = Lombardo, Berellini, Obach 2018, Drug Metab Dispos 46:1466, doi 10.1124/dmd.118.082966; details: human; for Vd / clearance / half-life / MRT: in vivo, iv; for fraction unbound: plasma

| Compound | Vd [2] | clearance [2] | half-life [2] | MRT [2] | fraction unbound [2] | also measured |
| --- | --- | --- | --- | --- | --- | --- |
| CN[C@@H]1C[C@H]2O[C@@](C)([C@@H]1OC)n1c3ccccc3c3c4c(c5c6ccccc6n2c5c31)C(=O)N[C@@H]4O |  |  |  |  |  | Vd ([1]; dog): 6.09 L/kg; clearance ([1]; dog): 10.2 mL/min/kg; fraction unbound ([1]; dog): 0.0074; Vd ([1]; rat): 16.7 L/kg; clearance ([1]; rat): 65 mL/min/kg |
| O=c1nc[nH]c2c1ncn2[C@H]1CC[C@@H](CO)O1 |  |  |  |  |  | Vd ([1]; dog): 0.96 L/kg; clearance ([1]; dog): 25.3 mL/min/kg; Vd ([1]; monkey): 1.3 L/kg; clearance ([1]; monkey): 27.2 mL/min/kg; Vd ([1]; rat): 1.3 L/kg; clearance ([1]; rat): 150 mL/min/kg |
| Oc1ccc2c(c1)[C@]13CCCC[C@@]1(O)[C@H](C2)N(CC1CCC1)CC3 |  |  |  |  |  | Vd ([1]; dog): 8.4 L/kg; clearance ([1]; dog): 58 mL/min/kg; fraction unbound ([1]; dog): 0.369; Vd ([1]; rat): 4.8 L/kg; clearance ([1]; rat): 91.2 mL/min/kg; fraction unbound ([1]; rat): 0.34 |
| OC(CCN1CCCCC1)(c1ccccc1)C1CC2C=CC1C2 (centres undefined) |  |  |  |  |  | Vd ([1]; dog): 9.7 L/kg; clearance ([1]; dog): 27 mL/min/kg; fraction unbound ([1]; dog): 0.19; fraction unbound ([1]; rat): 0.31 |
| Cn1nnc2c(C(N)=O)ncn2c1=O |  |  |  |  |  | Vd ([1]; rat): 0.92 L/kg; clearance ([1]; rat): 9.8 mL/min/kg |
| [H]/N=C(\N)c1ccc(OCCCCCOc2ccc(/C(N)=N/[H])cc2)cc1 |  |  |  |  |  | Vd ([1]; dog): 6.6 L/kg; clearance ([1]; dog): 60.6 mL/min/kg; fraction unbound ([1]; dog): 0.266; Vd ([1]; rat): 10.1 L/kg; clearance ([1]; rat): 112 mL/min/kg; fraction unbound ([1]; rat): 0.4 |
| COc1ccc(-c2nc3ccc(C4=NNC(=O)CC4C)cc3[nH]2)cc1 (centres undefined) |  |  |  |  |  | Vd ([1]; rat): 3.5 L/kg |
| OC(CNCC(O)C1CCc2cc(F)ccc2O1)C1CCc2cc(F)ccc2O1 (centres undefined) |  |  |  |  |  | Vd ([1]; rat): 6.2 L/kg; clearance ([1]; rat): 49 mL/min/kg; fraction unbound ([1]; rat): 0.015 |
| C[C@@H]1C[C@H]2C3C[C@H](F)C4=CC(=O)C=C[C@]4(C)[C@@]3(F)[C@@H](O)C[C@]2(C)[C@@]1(OC(=O)c1ccco1)C(=O)SCF (some centres undefined) | 4.95 L/kg | 13.4 mL/min/kg | 10.6 h |  |  |  |
| CC(=O)OC1=C2C(C)[C@@H](OC(=O)C(O)C(NC(=O)OC(C)(C)C)c3ccccc3)C[C@@](O)([C@@H](OC(=O)c3ccccc3)[C@@H]3[C@]4(OC(C)=O)CO[C@@H]4C[C@@H]4C[C@@]43C1=O)C2(C)C (some centres undefined) | 17 L/kg | 10.8 mL/min/kg | 33.9 h | 26.1 h |  |  |
| CCN(CC)C(=O)[C@]1(c2ccccc2)C[C@@H]1CN | 4.51 L/kg | 8.17 mL/min/kg | 6.48 h | 8.17 h |  |  |
| Cn1c(=O)c2nc[nH]c2n(C)c1=O |  |  | 7.2 h |  |  |  |
| CC(C)C(=O)OCC(=O)[C@]12O[C@@H](C3CCCCC3)O[C@@H]1C[C@@H]1[C@@H]3CC=C4CC(=O)C=C[C@]4(C)[C@H]3[C@@H](O)C[C@@]12C | 2.9 L/kg | 33.3 mL/min/kg | 1.04 h | 1.45 h | 0.01 |  |
| O=C1C[C@@H](c2ccccc2)Oc2cc(O)cc(O)c21 | 0.8 L/kg | 27 mL/min/kg | 0.7 h | 0.47 h |  |  |
| CC(C)NCC(O)c1cc(O)cc(O)c1 (centres undefined) | 6.03 L/kg | 14.1 mL/min/kg | 6.41 h | 7.14 h | 0.9 |  |
| COC(=O)C(c1ccccc1)[C@H]1CCCCN1 (some centres undefined) | 2.65 L/kg | 6.67 mL/min/kg | 8 h | 6.62 h | 0.87 |  |
| C[C@H](CCC(=O)O)[C@H]1CC[C@H]2[C@@H]3[C@H](O)C[C@@H]4C[C@H](O)CC[C@]4(C)[C@H]3CC[C@]12C | 0.19 L/kg | 5.7 mL/min/kg | 1.42 h | 0.57 h |  |  |
| COc1cccc(OCCCN)c1-c1cc(Nc2cnc(C#N)cn2)n[nH]1 | 22.8 L/kg | 34 mL/min/kg | 12.5 h | 11.2 h |  |  |
| CN(C)CCC(c1ccc(Cl)cc1)c1ccccn1 (centres undefined) | 3.3 L/kg | 2.5 mL/min/kg |  | 22 h |  |  |
| N=C(N)NCCCC(NC(=O)C1CCCN1C(=O)C1CSSCCC(=O)NC(Cc2ccc(O)cc2)C(=O)NC(Cc2ccccc2)C(=O)NC(CCC(N)=O)C(=O)NC(CC(N)=O)C(=O)N1)C(=O)NCC(N)=O (centres undefined) | 0.3 L/kg | 1.4 mL/min/kg | 3 h | 3.6 h |  |  |
| CC(Oc1ccccc1)C(=O)NC1C(=O)N2C(C(=O)O)C(C)(C)S[C@H]12 (some centres undefined) | 0.3 L/kg | 4.2 mL/min/kg | 0.91 h | 1.2 h | 0.25 |  |
| CN1C[C@H](CNC(=O)OCc2ccccc2)C[C@@H]2c3cccc4c3c(cn4C)C[C@H]21 | 0.57 L/kg | 9.6 mL/min/kg | 0.93 h | 1 h |  |  |
| CCCC=c1ncc(=CC(Cc2cccs2)C(=O)O)n1Cc1ccc(C(=O)O)cc1 (centres undefined) | 0.17 L/kg | 1.9 mL/min/kg | 2.1 h | 1.5 h |  |  |
| CN1C2CCC1CC(=C1c3ccccc3CSc3ccccc31)C2 | 11.8 L/kg | 4.98 mL/min/kg | 29.8 h | 39.5 h |  |  |
| CC[C@@H]([C@H](C)O)n1ncn(-c2ccc(N3CCN(c4ccc(OC[C@H]5CO[C@@](Cn6cncn6)(c6ccc(F)cc6F)C5)cc4)CC3)cc2)c1=O | 3.8 L/kg | 4.3 mL/min/kg | 10.6 h | 14.5 h | 0.013 |  |
| O=NNc1cnccn1 | 0.31 L/kg | 15.1 mL/min/kg | 0.38 h | 0.29 h |  |  |

| Compound | Vd [2] | clearance [2] | half-life [2] | MRT [2] | fraction unbound [2] | also measured |
| --- | --- | --- | --- | --- | --- | --- |
| C=C1C[C@@H]2CC[C@@]34C[C@H]5O[C@H]6[C@@H](O3)[C@H]3O[C@H](CC[C@@H]3O[C@H]6[C@H]5O4)CC(=O)O[C@@H]3[C@@H](OC)[C@@H](C[C@H](O)CN)O[C@H]3C[C@H]3O[C@@H](CC[C@@H]1O2)C[C@@H](C)C3=C | 1.46 L/kg | 0.75 mL/min/kg | 37.8 h | 32.5 h | 0.43 |  |
| O=c1ccc2ncc(=O)n3c2n1C[C@H]3CN1CCC(NCc2cc3c(cn2)OCCC3)CC1 | 2.7 L/kg | 9.23 mL/min/kg | 12.6 h | 4.86 h |  |  |
| O=C(NC1CCN(CCc2c[nH]c3ccccc23)CC1)c1ccccc1 | 4.9 L/kg | 20 mL/min/kg | 4.3 h | 4.1 h | 0.15 |  |
| CCOC(=O)N[C@@H]1CC[C@@H]2[C@H](CC3C(=O)O[C@H](C)[C@H]3[C@H]2/C=C/c2ccc(-c3cccc(F)c3)cn2)C1 (some centres undefined) | 3.74 L/kg | 0.34 mL/min/kg | 149 h | 183 h | 0.01 |  |
| C#CCN(Cc1cc2c(=O)nc(C)[nH]c2cc1C)c1ccc(C(=O)NC(CCc2nnn[nH]2)C(=O)O)c(F)c1 (centres undefined) | 0.53 L/kg | 0.29 mL/min/kg | 78.5 h | 30.4 h | 0.01 |  |
| NC(=O)c1cccc(N)c1 | 1.9 L/kg | 7.9 mL/min/kg | 5 h | 4 h |  |  |
| CON=C(C(=O)NC1C(=O)N2C(C(=O)O)=C(C)CS[C@H]12)c1csc(N)n1 (some centres undefined) | 0.28 L/kg | 1.9 mL/min/kg | 2.1 h | 2.5 h | 0.78 |  |
| CCOC(=O)[C@]1(c2ccccc2)CCC=C[C@H]1NC | 2.5 L/kg | 9.9 mL/min/kg | 4.4 h | 4.2 h |  |  |
| CC(C)N(CC[C@H](c1ccccc1)c1cc(CO)ccc1O)C(C)C | 2.41 L/kg |  |  |  | 0.5 |  |
| CCON=C(C(=O)NC1C(=O)N2C(C(=O)[O-])=C(Sc3nc(-c4cc[n+](C)cc4)cs3)CS[C@H]12)c1nsc(NP(=O)(O)O)n1 (some centres undefined) | 0.53 L/kg | 83.6 mL/min/kg | 0.09 h | 0.11 h | 0.8 |  |
| O=C1c2c(c3c4ccc(O)cc4n([C@@H]4O[C@H](CO)[C@@H](O)[C@H](O)[C@H]4O)c3c3[nH]c4cc(O)ccc4c23)C(=O)N1NC(CO)CO | 1.45 L/kg | 25.3 mL/min/kg | 4.01 h | 0.95 h |  |  |
| c1ccc(CN(CC2=NCCN2)c2ccccc2)cc1 | 3.9 L/kg | 19.7 mL/min/kg | 2.29 h | 3.45 h |  |  |
| O=P(O)(O)C(Cl)(Cl)P(=O)(O)O | 0.88 L/kg | 1.6 mL/min/kg | 43.2 h | 9.2 h | 0.64 |  |
| C[C@@H](O)C1C(=O)N2C(C(=O)[O-])=C(S[C@H]3CC[S@@+](O)C3)S[C@@H]12 (some centres undefined) | 0.21 L/kg | 5.1 mL/min/kg | 0.9 h | 0.7 h | 0.9 |  |
| O=[N+]([O-])OCC(CO[N+](=O)[O-])O[N+](=O)[O-] |  | 194 mL/min/kg |  |  |  |  |
| CNCC[C@@H](O)[C@@H]1C[C@H](SC2=C(C(=O)O)N3C(=O)C([C@@H](C)O)[C@H]3[C@H]2C)CN1 (some centres undefined) | 0.22 L/kg | 2.02 mL/min/kg | 1.48 h | 2.04 h |  |  |
| CC1(C)S[C@@H]2C(NC(=O)COc3ccccc3)C(=O)N2C1C(=O)O (some centres undefined) | 0.41 L/kg | 6.8 mL/min/kg | 0.84 h | 1 h |  |  |
| O=P(O)(O)C(Sc1ccc(Cl)cc1)P(=O)(O)O | 0.23 L/kg | 0.4 mL/min/kg | 7.7 h | 9.5 h | 0.1 |  |
| C[N+]1(C)[C@@H]2CC(OC(=O)C(O)(c3cccs3)c3cccs3)C[C@H]1[C@@H]1O[C@@H]12 (some centres undefined) | 32 L/kg |  |  | 42.3 h | 0.28 |  |
| Nc1ccncc1 | 2.6 L/kg | 9.3 mL/min/kg | 3.6 h | 4.7 h | 1 |  |
| Cc1ncc(CO)c(CO)c1O | 0.66 L/kg | 7.9 mL/min/kg | 0.98 h | 1.38 h |  |  |
| CN(C)CCN1C(=O)c2cccc3cc([N+](=O)[O-])cc(c23)C1=O | 11.3 L/kg | 34.6 mL/min/kg | 28.7 h | 5.6 h |  |  |
| N=C(N)NC(CS)C(=O)O (centres undefined) | 0.25 L/kg | 2.88 mL/min/kg | 1.34 h | 1.39 h |  |  |
| CNC1=Nc2ccc(Cl)cc2C(c2ccccc2)=[N+](O)C1 | 0.25 L/kg |  | 8.3 h | 11 h |  |  |
| Cc1ccccc1OCC(O)CNCCOc1ccc(C(N)=O)cc1 (centres undefined) | 4 L/kg | 14 mL/min/kg | 2.5 h | 4.8 h | 0.089 |  |
